SMILES strings stand for the structures.

The text below walks through data of patent US9650339B2, “Inhibitors of histone demethylases” (Gilead Sciences, Inc., priority 2013, dated 2017).

The subject of one test is MOLP8. Description: Cell proliferation assay MOLP8. The format is cell-based. Conditions: Homo sapiens, MOLP-8; MOLP8, Myeloma; method of Example 5. On the procedure: (§1) MCF7 cells were seeded in multi well plates at a density optimized to give approximately 90% confluent cells at the time of harvest. Cells were incubated for 24 hours before addition of compound. Compounds were diluted in complete medium and added to the plates in duplicates. The final concentration of DMSO was maximum 0.5%. Complete medium used was DMEM with GlutaMAX containing 10% FBS and pen/strep.
(§2) 120 hours after addition of compounds, the plates were harvested and analyzed by ATPlite 1 Step (Perkin Elmer, cat no 6016739) according to the manufactures recommendation.
(§3) The assays were performed by the method of Example 5 by seeding the relevant cell line at a density optimized to give approximately 90% confluent cells at the time of harvest.

For the next test, the target named is T1, KDM2B (FBXL10) (Homo sapiens, UniProt Q8NHM5).
T1 sequence (Q8NHM5 1-650): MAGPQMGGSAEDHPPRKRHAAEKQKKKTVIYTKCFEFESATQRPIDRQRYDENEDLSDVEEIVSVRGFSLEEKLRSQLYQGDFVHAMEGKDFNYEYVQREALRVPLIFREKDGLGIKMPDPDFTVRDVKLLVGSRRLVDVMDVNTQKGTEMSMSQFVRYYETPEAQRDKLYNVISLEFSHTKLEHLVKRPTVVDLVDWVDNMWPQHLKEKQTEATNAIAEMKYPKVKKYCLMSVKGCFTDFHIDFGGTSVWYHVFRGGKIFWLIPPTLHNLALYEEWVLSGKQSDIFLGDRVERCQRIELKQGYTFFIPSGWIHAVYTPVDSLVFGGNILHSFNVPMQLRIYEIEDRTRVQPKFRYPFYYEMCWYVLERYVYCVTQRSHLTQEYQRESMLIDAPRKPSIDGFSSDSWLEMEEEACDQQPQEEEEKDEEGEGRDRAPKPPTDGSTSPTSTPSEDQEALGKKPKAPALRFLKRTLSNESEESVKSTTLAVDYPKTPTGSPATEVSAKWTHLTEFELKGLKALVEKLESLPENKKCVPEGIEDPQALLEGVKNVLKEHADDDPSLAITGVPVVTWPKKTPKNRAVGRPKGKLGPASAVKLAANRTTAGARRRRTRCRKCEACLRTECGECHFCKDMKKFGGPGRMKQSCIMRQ
The test can be described thus: Histone lysine demethylase AlphaLISA assay, KDM2B. The conditions noted are these: read-out: KDM2B HDME Inhibition IC50. Type of test: biochemical. Put shortly:
(§4)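 Enzyme 10 min pre-incubation; + compound (3% DMSO soln) 10 min; + biotin-H3 methyl-Lys peptide, 25 μM L-Asc, 10 μM α-KG, RT. Read: AlphaLISA acceptor beads, then streptavidin donor beads, RT, dark.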

The subject of a further test is KARPAS620. The test can be described thus: Cell proliferation assay KARPAS620. Conditions: Homo sapiens, Karpas-620; KARPAS620, Plasma cell leukemia; method of Example 5. The format is cell-based. On the procedure:
as §1, §2, §3

The next test concerns the target KDM6A (UTX) (Homo sapiens, UniProt O15550). Description: Histone lysine demethylase AlphaLISA assay, KDM6A. The conditions noted are these: read-out: KDM6A HDME Inhibition IC50. The format is biochemical. Put shortly:
as §4
On the technique in general: In Alpha technology, singlet oxygen from a donor bead excites a nearby acceptor bead.

The target of another test is T2, KDM5B (PLU-1) (Homo sapiens, UniProt Q9UGL1).
T2 sequence (Q9UGL1 1-809): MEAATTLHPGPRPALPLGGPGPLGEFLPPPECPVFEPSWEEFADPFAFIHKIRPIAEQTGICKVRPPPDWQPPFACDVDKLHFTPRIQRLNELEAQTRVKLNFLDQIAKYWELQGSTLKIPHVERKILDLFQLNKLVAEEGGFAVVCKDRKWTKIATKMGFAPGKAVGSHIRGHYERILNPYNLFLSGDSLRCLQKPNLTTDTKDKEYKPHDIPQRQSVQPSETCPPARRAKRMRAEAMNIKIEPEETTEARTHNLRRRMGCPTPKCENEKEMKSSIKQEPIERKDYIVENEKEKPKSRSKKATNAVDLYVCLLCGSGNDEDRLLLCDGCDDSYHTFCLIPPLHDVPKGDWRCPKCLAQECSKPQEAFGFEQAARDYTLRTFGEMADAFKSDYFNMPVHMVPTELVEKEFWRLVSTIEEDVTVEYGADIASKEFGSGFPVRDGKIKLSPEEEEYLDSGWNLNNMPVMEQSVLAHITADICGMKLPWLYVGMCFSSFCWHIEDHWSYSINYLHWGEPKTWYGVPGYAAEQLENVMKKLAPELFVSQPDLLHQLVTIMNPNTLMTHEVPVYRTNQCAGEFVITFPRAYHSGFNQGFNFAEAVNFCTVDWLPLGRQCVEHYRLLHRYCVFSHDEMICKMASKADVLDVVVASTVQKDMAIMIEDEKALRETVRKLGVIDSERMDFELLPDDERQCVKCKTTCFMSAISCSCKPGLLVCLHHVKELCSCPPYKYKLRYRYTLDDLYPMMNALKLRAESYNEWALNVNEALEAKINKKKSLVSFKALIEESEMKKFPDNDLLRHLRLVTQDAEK
The test can be described thus: Histone lysine demethylase AlphaLISA assay, KDM5B. The format is biochemical. The conditions noted are these: read-out: KDM5B HDME Inhibition IC50. Put shortly:
as §4

Another test deals with T3, KDM4C (JMJD2C) (Homo sapiens, UniProt Q9H3R0).
T3 sequence (Q9H3R0 1-349): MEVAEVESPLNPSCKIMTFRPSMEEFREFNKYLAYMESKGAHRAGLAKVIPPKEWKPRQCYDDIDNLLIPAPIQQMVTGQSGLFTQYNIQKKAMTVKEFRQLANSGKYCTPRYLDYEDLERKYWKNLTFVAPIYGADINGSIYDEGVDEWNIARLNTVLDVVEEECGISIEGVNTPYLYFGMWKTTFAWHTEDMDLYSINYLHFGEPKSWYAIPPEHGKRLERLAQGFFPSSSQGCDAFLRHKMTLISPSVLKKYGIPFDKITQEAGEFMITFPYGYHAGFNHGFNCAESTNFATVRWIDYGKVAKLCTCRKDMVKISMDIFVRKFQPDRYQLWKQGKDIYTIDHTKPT
The test can be described thus: Histone lysine demethylase AlphaLISA assay, KDM4C. Conditions: read-out: KDM4C HDME Inhibition IC50. The format is biochemical. The procedure, abridged: as §4

The next test deals with MCF7 cells. The test can be described thus: Cell proliferation assay MCF7. The format is cell-based. Conditions: MCF7 human breast cancer cells; 120 hours; ATPlite 1 Step. Put shortly: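 After 120 h of compound exposure (duplicates, DMSO at most 0.5%) in DMEM GlutaMAX with 10% FBS, ATPlite 1 Step luminescence measured cellular ATP. Compound was added 24 h after seeding, at a density chosen for ~90% confluence at the end.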

Sequence of KDM6A (UTX) (O15550 919-1401): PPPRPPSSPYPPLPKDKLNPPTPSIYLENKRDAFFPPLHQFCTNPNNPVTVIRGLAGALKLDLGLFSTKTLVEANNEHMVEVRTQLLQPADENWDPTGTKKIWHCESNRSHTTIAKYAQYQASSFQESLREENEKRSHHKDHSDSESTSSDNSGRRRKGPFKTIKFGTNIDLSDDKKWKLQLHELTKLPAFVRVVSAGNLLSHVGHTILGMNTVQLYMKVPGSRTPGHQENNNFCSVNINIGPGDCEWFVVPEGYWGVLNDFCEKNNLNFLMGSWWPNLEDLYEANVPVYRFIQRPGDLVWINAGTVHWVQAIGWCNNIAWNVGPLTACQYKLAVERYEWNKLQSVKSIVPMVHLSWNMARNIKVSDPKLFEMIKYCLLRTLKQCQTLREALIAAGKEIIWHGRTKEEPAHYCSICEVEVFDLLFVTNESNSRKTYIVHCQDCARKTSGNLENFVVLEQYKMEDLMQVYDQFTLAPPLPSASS

One may read the EC50 as the concentration needed to bring the measured effect to its halfway point. A higher EC50 goes with a less potent agent. What is called IC50 is the point on the concentration scale where inhibition reaches its midpoint. Regarding `CCN(CCN(C)C)C(=O)CNCc1cc(/C=N/CC(CO)C2CCCCC2)ccn1` (stereo not shown) [Compound 81, 2-[({4-[[(2-cyclohexyl-3-hydroxypropyl)-imino]methyl]pyridin-2-yl}methyl)-amino]-N-[2-(dimethylamino)-ethyl]-N-ethylacetamide], the EC50 with MOLP8, with KARPAS620 and in the test on MCF7 cells was less than 250 nM each time. Further, the IC50 is more than 2500 nM on KDM2B (FBXL10), more than 2500 nM on KDM6A (UTX), less than 250 nM at KDM5B (PLU-1) and 250 to 2500 nM on KDM4C (JMJD2C).
